Reference: ChEMBL document CHEMBL4229482, “Design, synthesis and biological evaluation of novel spiro-pentacylamides as acetyl-CoA carboxylase inhibitors” (Bioorg Med Chem, 2018)

Key:
SW-620 = assay: cells; conditions: Homo sapiens, SW-620, 48 h
Description: Antiproliferative activity against human SW620 cells after 48 hrs by MTT assay

NCI-H1975 = assay: Antiproliferative activity against human NCI-H1975 cells after 48 hrs by MTT assay; type: functional, cell-based; conditions: NCI-H1975, 48 h
Caco-2 = assay: Antiproliferative activity against human Caco2 cells after 48 hrs by MTT assay; type: functional, cell-based; conditions: Caco-2, 48 h
HCT-116 = assay: cells; conditions: Homo sapiens, HCT-116, 48 h
Acetyl-CoA carboxylase 1 = Acetyl-CoA carboxylase 1 (Homo sapiens, UniProt Q13085); assay: Inhibition of C-terminal His-tagged recombinant human ACC1 (1 to 2383 residues) expressed in Baculovirus infected Sf9 insect cells using acetyl CoA as substrate preincubated for 15 mins followed by substrate addition and measured after 60 mins by ADP-Glo assay
Acetyl-CoA carboxylase 2 = Acetyl-CoA carboxylase 2 (Homo sapiens, UniProt O00763); assay: Inhibition of C-terminal His-tagged full length human ACC2 expressed in Baculovirus infected Sf9 insect cells using acetyl CoA as substrate preincubated for 15 mins followed by substrate addition and measured after 60 mins by ADP-Glo assay
Acetyl-CoA carboxylase 2, sequence (O00763 whole entry): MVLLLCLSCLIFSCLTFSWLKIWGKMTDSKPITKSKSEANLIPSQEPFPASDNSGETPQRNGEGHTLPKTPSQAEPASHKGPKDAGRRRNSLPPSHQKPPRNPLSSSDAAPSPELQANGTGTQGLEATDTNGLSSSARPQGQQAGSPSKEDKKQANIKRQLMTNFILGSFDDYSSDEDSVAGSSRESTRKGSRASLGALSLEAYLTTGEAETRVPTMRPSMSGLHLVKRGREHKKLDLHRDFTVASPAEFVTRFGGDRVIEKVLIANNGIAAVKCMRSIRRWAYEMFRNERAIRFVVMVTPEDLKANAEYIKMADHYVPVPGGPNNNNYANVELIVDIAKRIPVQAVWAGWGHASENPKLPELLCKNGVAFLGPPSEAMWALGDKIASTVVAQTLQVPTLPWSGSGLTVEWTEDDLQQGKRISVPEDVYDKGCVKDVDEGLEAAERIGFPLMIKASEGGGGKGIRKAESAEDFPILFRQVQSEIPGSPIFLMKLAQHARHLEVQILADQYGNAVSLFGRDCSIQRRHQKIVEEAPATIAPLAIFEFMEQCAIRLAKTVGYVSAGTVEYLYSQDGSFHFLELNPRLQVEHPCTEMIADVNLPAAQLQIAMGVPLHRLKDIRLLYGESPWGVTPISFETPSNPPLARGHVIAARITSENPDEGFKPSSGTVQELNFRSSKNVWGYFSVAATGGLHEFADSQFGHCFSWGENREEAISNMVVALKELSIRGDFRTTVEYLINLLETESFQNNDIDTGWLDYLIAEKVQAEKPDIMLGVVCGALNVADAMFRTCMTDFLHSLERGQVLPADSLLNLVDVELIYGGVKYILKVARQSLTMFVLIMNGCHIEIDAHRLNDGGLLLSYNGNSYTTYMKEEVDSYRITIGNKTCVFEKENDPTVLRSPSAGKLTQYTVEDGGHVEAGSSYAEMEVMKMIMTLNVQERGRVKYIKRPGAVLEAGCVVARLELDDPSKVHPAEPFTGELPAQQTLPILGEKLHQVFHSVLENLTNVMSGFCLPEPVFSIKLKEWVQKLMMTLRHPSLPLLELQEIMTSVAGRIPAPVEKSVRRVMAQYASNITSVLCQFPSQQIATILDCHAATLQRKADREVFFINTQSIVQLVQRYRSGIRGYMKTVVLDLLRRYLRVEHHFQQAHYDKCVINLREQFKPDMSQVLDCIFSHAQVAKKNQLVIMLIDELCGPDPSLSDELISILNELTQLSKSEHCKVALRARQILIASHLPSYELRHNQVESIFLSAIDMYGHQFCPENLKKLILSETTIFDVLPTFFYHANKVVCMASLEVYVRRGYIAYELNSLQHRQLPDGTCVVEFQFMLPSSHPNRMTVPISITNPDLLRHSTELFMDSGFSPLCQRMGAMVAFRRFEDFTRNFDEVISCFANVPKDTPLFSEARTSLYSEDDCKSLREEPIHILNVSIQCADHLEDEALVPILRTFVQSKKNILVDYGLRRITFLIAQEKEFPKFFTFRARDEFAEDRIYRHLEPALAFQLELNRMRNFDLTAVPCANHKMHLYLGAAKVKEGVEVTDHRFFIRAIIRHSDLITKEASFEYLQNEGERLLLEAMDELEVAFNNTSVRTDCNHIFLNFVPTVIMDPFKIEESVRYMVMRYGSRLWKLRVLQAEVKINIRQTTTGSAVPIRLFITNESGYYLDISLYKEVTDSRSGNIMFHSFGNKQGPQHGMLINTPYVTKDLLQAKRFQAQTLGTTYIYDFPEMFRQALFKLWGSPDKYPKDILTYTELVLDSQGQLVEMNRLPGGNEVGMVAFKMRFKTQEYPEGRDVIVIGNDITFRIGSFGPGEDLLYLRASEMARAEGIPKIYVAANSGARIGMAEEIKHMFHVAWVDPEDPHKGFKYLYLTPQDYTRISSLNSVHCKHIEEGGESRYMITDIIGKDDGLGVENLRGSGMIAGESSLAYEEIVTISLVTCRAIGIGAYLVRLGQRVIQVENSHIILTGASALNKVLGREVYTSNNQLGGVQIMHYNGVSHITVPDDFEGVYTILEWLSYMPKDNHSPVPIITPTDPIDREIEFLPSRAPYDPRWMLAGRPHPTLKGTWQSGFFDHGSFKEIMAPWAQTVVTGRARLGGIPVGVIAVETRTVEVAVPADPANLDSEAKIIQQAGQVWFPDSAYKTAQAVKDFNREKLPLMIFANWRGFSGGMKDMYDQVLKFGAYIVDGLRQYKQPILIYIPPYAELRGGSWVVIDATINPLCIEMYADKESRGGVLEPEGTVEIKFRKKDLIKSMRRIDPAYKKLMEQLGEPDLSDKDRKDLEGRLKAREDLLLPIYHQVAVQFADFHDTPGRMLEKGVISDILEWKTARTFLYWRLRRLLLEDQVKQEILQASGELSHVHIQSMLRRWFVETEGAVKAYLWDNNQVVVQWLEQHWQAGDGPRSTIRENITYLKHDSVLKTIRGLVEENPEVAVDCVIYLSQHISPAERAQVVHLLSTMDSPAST

A549 = assay: cells; conditions: Homo sapiens, A549, 48 h

| SMILES | IC50 (SW-620) | IC50 (NCI-H1975) | IC50 (Caco-2) | IC50 (HCT-116) | IC50 (Acetyl-CoA carboxylase 1) | IC50 (Acetyl-CoA carboxylase 2) | IC50 (A549) |
| --- | --- | --- | --- | --- | --- | --- | --- |
| O=C(c1ccc2cn[nH]c2c1)N1CCC2(CC1)CC(=O)N(c1ccc(C(F)(F)F)cc1)C2 | – | – | – | – | 4.73 µM | 2.74 µM | – |
| O=C(c1ccc2[nH]ccc2c1)N1CCC2(CC1)CC(=O)N(c1ccc(C(F)(F)F)cc1)C2 | – | – | – | – | > 5 µM | > 5 µM | – |
| Cc1cc(C(=O)N2CCC3(CC2)CC(=O)N(c2ccc(C#N)cc2)C3)cc2cn[nH]c12 | – | – | – | – | 3.99 µM | > 5 µM | – |
| O=C(c1ccc2cc[nH]c2c1)N1CCC2(CC1)CC(=O)N(c1ccc(C(F)(F)F)cc1)C2 | – | – | – | – | 4.95 µM | > 5 µM | – |
| O=C(c1cnc2ccccc2c1)N1CCC2(CC1)CC(=O)N(c1ccc(C(F)(F)F)cc1)C2 | – | – | – | – | > 5 µM | > 5 µM | – |
| O=C(c1ccc2cccnc2c1)N1CCC2(CC1)CC(=O)N(c1ccc(C(F)(F)F)cc1)C2 | – | – | – | – | 4.92 µM | > 5 µM | – |
| Cc1cc(C(=O)N2CCC3(CC2)CC(=O)N(c2ccc(C#N)cc2F)C3)cc2cn[nH]c12 | – | – | – | – | 3.56 µM | > 5 µM | – |
| O=C(c1ccc2[nH]c3c(c2c1)CCC3)N1CCC2(CC1)CC(=O)N(c1ccc(C(F)(F)F)cc1)C2 | – | – | – | – | 4.27 µM | 3.48 µM | – |
| O=C(c1ccc2ncccc2c1)N1CCC2(CC1)CC(=O)N(c1ccc(C(F)(F)F)cc1)C2 | – | – | – | – | > 5 µM | > 5 µM | – |
| Cc1cc(C(=O)N2CCC3(CC2)CC(=O)N(c2ccc(C(=O)O)cc2)C3)cc2cn[nH]c12 | – | – | – | – | 2.79 µM | 4.65 µM | – |
| O=C(c1ccc2[nH]c(-c3ccncc3)nc2c1)N1CCC2(CC1)CC(=O)N(c1ccc(C(F)(F)F)cc1)C2 | 7.24 µM | 0.39 µM | > 10 µM | 7.64 µM | 2.65 µM | 1.24 µM | 3.49 µM |

The next compounds have a lower IC50 (Acetyl-CoA carboxylase 1) than those just listed; values first:

| IC50 (SW-620) | IC50 (NCI-H1975) | IC50 (Caco-2) | IC50 (HCT-116) | IC50 (Acetyl-CoA carboxylase 1) | IC50 (Acetyl-CoA carboxylase 2) | IC50 (A549) | SMILES |
| --- | --- | --- | --- | --- | --- | --- | --- |
| > 10 µM | 5.64 µM | > 10 µM | > 10 µM | 2.24 µM | 1.88 µM | 2.11 µM | COC(=O)c1ccc(N2CC3(CCN(C(=O)c4cc(C)c5[nH]ncc5c4)CC3)CC2=O)cc1 |
| – | – | – | – | 2.22 µM | 3.02 µM | – | Cc1nc2cc(C(=O)N3CCC4(CC3)CC(=O)N(c3ccc(C(F)(F)F)cc3)C4)ccc2[nH]1 |
| – | – | – | – | 2.01 µM | 3.77 µM | – | Cc1cc(N2CC3(CCN(C(=O)c4cc(C)c5[nH]ncc5c4)CC3)CC2=O)ccc1C#N |
| 4.74 µM | – | – | 8.67 µM | 1.95 µM | 1.11 µM | > 10 µM | O=C(c1ccc2[nH]c3c(c2c1)CCCC3)N1CCC2(CC1)CC(=O)N(c1ccc(C(F)(F)F)cc1)C2 |
| 1.82 µM | 0.27 µM | > 10 µM | 4.21 µM | 1.69 µM | 1.94 µM | > 10 µM | CCCc1nc2cc(C(=O)N3CCC4(CC3)CC(=O)N(c3ccc(C(F)(F)F)cc3)C4)cc(C)c2[nH]1 |
| > 10 µM | > 10 µM | > 10 µM | 8.67 µM | 1.2 µM | 0.944 µM | > 10 µM | Cc1cc(C(=O)N2CCC3(CC2)CC(=O)N(c2ccc(C(F)(F)F)cc2)C3)cc2cn[nH]c12 |
| > 10 µM | > 10 µM | > 10 µM | 6.21 µM | 1.15 µM | 0.764 µM | 1.03 µM | CC(C)c1ccc(-c2nc3cc(C(=O)N4CCC5(CC4)CC(=O)N(c4ccc(C(F)(F)F)cc4)C5)ccc3[nH]2)cc1 |
| 3.26 µM | 0.72 µM | – | > 10 µM | 1.05 µM | 0.976 µM | 7.96 µM | O=C(c1ccc2[nH]c(-c3ccco3)nc2c1)N1CCC2(CC1)CC(=O)N(c1ccc(C(F)(F)F)cc1)C2 |
| 2.05 µM | 0.38 µM | 5.42 µM | 1.22 µM | 0.527 µM | 0.397 µM | 1.92 µM | O=C(c1ccc2[nH]c(-c3ccccc3)nc2c1)N1CCC2(CC1)CC(=O)N(c1ccc(C(F)(F)F)cc1)C2 |
| 3.19 µM | 0.21 µM | 6.51 µM | 2.43 µM | 0.032 µM | 0.008 µM | 0.74 µM | Cc1cc(C(=O)N2CCC3(CC2)CC(=O)c2nn(C(C)(C)C)cc2O3)cc2cn[nH]c12 |
